Series [1] relates to male Wistar rats. Nature of the series: Rotarod running test to assess sedation after neurosteroid sustained release emulsions. To be noted: sc sustained release emulsion; for sedation (rotarod run time) at 1 hour after injection: normal run time 120 s. (In general: The rotarod test checks motor coordination on a turning rod.)
For series [2] the following is noted: given ip or intragastrically; cited from earlier work.
For series [3] the following is noted: in vivo; cited from earlier work.
For series [4], the system named is rats. Nature of the series: Tail flick latency (TFL) response to ip morphine: effect of alphadolone on established morphine tolerance. A general note: Hot-plate and tail-flick tests time the reaction to a heat stimulus.
Source text: An observer unaware of the nature of this treatment, saline or alphadolone, made the TFL measurements.
The TFL responses on day 1 and day 3 were combined for drug treatment and expressed as means SEM. These values were compared to see if tolerance occurred and whether co administration of alphadolone caused reversal of the tolerance effect.
Series [5] has as its system mice. To be noted: cited from earlier work.
The conditions of series [6]: dose of alphadolone used for tolerance reversal (10 mg/kg); cited from earlier work.
The conditions of series [7]: alphadolone alone; cited from earlier work.
The test system of series [8] is rats. Nature of the series: Electrical current threshold (ECT) test of nociceptive threshold in the tail after alphadolone sustained release emulsion. To be noted: 250 mg/kg alphadolone acetate sc in slow release emulsion.
Series [9] relates to male Wistar rats. In words: Tail flick latency (TFL) response to ip morphine: effect of sustained release neurosteroid on development of morphine tolerance.
[10] abbreviates: alphadolone 250 mg/kg, alphaxalone 80 mg/kg.

Take `CC(=O)[C@H]1CC[C@H]2[C@@H]3CC[C@H]4C[C@H](O)CC[C@]4(C)[C@H]3C(=O)C[C@]12C` [alphaxalone]: the “sedation (rotarod run time) at 1 hour after injection” value in [1] (setting [10]) is “significantly greater than that caused by alphadolone”. Besides, in series [1] (alphaxalone 80 mg/kg), the “duration of significant sedative effects (rotarod)” value is listed as “four”. Moreover, in series [2], the antinociception entry is reported as “no antinociception” and the sedation result is given as “causes sedation”. In series [3], the “potency as an anaesthetic compared with alphadolone” value is recorded as “three”.

`CN1CC[C@]23c4c5ccc(O)c4O[C@H]2[C@@H](O)C=C[C@H]3[C@H]1C5` [morphine]: in series [4] (immediate release morphine 6.4 mg/kg ip, both groups, n=9), the “tail flick latency response, day 1 (pre tolerance)” value is given as “approximately 80 % MPE”.

`CC(=O)C1CCC2C3CC=C4CC(OS(=O)(=O)O)CCC4(C)C3CCC12C` (centres unmarked) [pregnenolone sulphate]: the “prevention of morphine tolerance” value in [5] is listed as “positive results”.

For the compound `CC(=O)OCC(=O)[C@H]1CC[C@H]2[C@@H]3CC[C@H]4C[C@H](O)CC[C@]4(C)[C@H]3C(=O)C[C@]12C` [alphadolone, 21-acetoxy-3alpha-hydroxy-5alpha-pregnane-11, 20-dione], the “TFL response, day 3 (post tolerance), morphine co administered with alphadolone” value in series [4] (6.4 mg/kg morphine ip plus alphadolone 10 mg/kg after two days morphine emulsion, mean SEM, n=9) is listed as 78.6 9.8 % MPE. The “day 3 response compared with day 1 response before tolerance” value in [4] (morphine 6.4 mg/kg ip co administered with alphadolone 10 mg/kg, p>0.05 one way ANOVA) is recorded as “equal to that produced on day 1”. For the same compound, the “sedation (rotarod run time) later than 1 hour after injection” value in series [1] (alphadolone 250 mg/kg) is given as “no sedation”. Besides, the “sedation (rotarod run time) at 1 hour after injection” value in series [1] (setting [10]) was “small but significant amount of sedation”. Besides, in series [2], the antinociception entry is recorded as “causes antinociceptive effects” and the sedation entry was “without sedation”. Moreover, the “potentiation of morphine TFL effects” value in series [6] is recorded as “potentiate morphine TFL effects”. In addition, in [7], the “antinociceptive effects in the TFL test” value is recorded as “no antinociceptive effects”. The “loss of consciousness / looking sedated after the injection” value in series [8] is “did not cause any rat to lose consciousness or in any way to look sedated”. Besides, in series [8] (n=10), the “time by which nociceptive threshold (ECT) was significantly increased” value is “one”. Also, the “time nociceptive threshold (ECT) remained elevated” value in series [8] (n=10, readings up to 44 hours) was 24 h. Also, in series [9] (sc emulsions with morphine emulsion, alphadolone 250 mg/kg/day, alphaxalone 80 mg/kg/day), the “sedation observed during the course of the tolerance experiment” value is “no overt signs of sedation”. The “post treatment TFL values (6.4 mg/kg ip morphine, day 3) compared with vehicle treated controls” value in [9] (two days sc morphine emulsion plus sc emulsion of alphadolone 250 mg/kg/day or alphaxalone 80 mg/kg/day, Students t test) was “statistically significant difference”.

In the case of `CC(=O)[C@H]1CC[C@H]2[C@@H]3CC[C@H]4C[C@H](O)CC[C@]4(C)[C@H]3CC[C@]12C` [allopregnanolone], the “prevention of morphine tolerance” value in series [5] is “positive results”.

Take dehydroepiandrosterone sulphate: the “prevention of morphine tolerance” value in series [5] is “positive results”.

On to `CC(=O)[C@H]1CC[C@H]2[C@@H]3CCC4=CC(=O)CC[C@]4(C)[C@H]3CC[C@]12C` [progesterone], for which the “prevention of morphine tolerance” value in series [5] is on record as “positive results”.

Values taken from patent US20090023697A1, “ANALGESIA METHOD” (Vernalis (R&D) Limited, priority 2003, published 2009).
